Where a name gives a salt, the structure may show the parent alone. Values belong to the compound of their own block, whether it stands above or below them.
Columns and labels:
[1] = Preparation and optimization of drug suspension formulations; format: physicochemical; conditions: for depot formation when injected into aqueous release medium: PBS, pH 7.4, 37° C.
Method: The polymer based drug suspensions were prepared by: (1) Placebo formulation: 50:50 Poly(DL-lactide-co-glycolide) (PLGA), MW 10 or 27 kDa, or Poly(lactic acid) (PLA) MW 10 kDa, was mixed with N-methyl-2-pyrrolidone (NMP) or a combination of NMP and DMSO (e.g. 1:1 v/v) at various weight ratios of PLGA/solvent (w/w) and allowed to dissolve by continuous mixing at room temperature (Placebo). […] (2) Drug loading: […] (3) Depot formation: A sample from the resulting drug-loaded suspension formulation (30 μL, 30±3 mg) was injected into 200 mL of 0.01 M PBS pH 7.4 using a pipette and incubated at 37° C. for 24 h to produce a spherical implant, as an example. […] Of importance, but without being limited to any particular theory or mechanism of action, is the ratio of the polymer:solvent:drug that achieves high drug loading in a stable polymeric suspension formulation and which is correlated to the drug's saturation solubility in the solvent system.

[2] = Drug saturation solubility studies; format: physicochemical; conditions: for solubility: 21 °C, thermodynamic from solid
Method: The saturation concentration of each drug in various solvents and/or solvent combinations was determined. Drugs were then formulated in ISFI formulations containing 1:1, 1:1.5, 1:2, or 1:4 w/w ratios of PLGA/solvent, as exemplary starting points. For example, for DTG, 25 mg of DTG was added to individual vials containing 100 mg of solvent or PLGA/N-MP placebo ISFI solution. The mixture was mixed thoroughly using a vortex with short-warming for several cycles, and stirred at room temperature (RT), e.g. about 20-22° C., for about 24-48 h. Samples were subsequently centrifuged for 30 min at 13,000 rpm (Eppendorf Centrifuge 5417C, USA) to remove excess undissolved drug. Sample aliquots (1 mg, n=4) were collected from the saturated supernatant and diluted with acetonitrile (ACN). Drug concentration in the saturated aliquots was determined by HPLC analysis.
A reverse-phase HPLC analysis was carried out with a Finnigan Surveyor HPLC system (Thermo Finnigan, San Jose, California, USA) with a Photodiode Array (PDA) Plus Detector, auto-sampler, and LC Pump Plus. The stationary phase utilized for the analysis was a Inertsil ODS-3 column (4 μm, 4.6 Å˜150 mm, [GL Sciences, Torrance, CA]) maintained at 40° C. Chromatographic separation was achieved by gradient elution using a mobile phase consisting of 0.1% trifluoroacetic acid in water and ACN (H2O/ACN 95:5 v/v). The flow rate was 1.0 mL/min and the total run time was 25 min for each 25 μL injection.

[3] = CAB MPT ISFI in vitro release studies; format: physicochemical; conditions: for in vitro release as single-drug ISFI versus co-formulated: CAB with either hormone, MPA or ENG with CAB (ENG up to 60 days)
Method: Drug release kinetics from various implant formulations was evaluated by incubating solid implants (25 mg±5 mg) into 200 mL of release medium under sink conditions (0.01 M PBS pH 7.4 with 2% solutol HS) at 37° C. for up to 6 months. Sample aliquots (1 mL) were collected at various time points and replaced with fresh release medium. The release medium was completely removed and replaced with fresh medium every week to maintain sink conditions. Drug concentration in the release samples was quantified by HPLC using the method described above. Cumulative drug release was calculated from the HPLC analysis and normalized to the total mass of drug in the implant. All experiments were performed in quadruplicate.
In vitro release of single-drug ISFIs vs. MPT ISFIs were evaluated to assess drug-drug interactions. All ISFI liquid suspensions were stable and homogenous, elicited <15% burst release, sustained release for 90 days, and above target release rates.

[4] = In vivo pharmacokinetics of MPT ISFI formulations; set-up: species or system mice
Method: FIGS. 18A to 18E. Drug concentrations in plasma of MPT ISFI formulations. Plasma concentrations of (FIG. 18A) DTG (278 mg/kg, 50 μL injection) when co-formulated with MPA or ENG (n=6-12/timepoint per group), (FIG. 18B) CAB (1215 mg/kg, 50 μL injection) when co-formulated with MPA or ENG (n=6-12/timepoint per group), (FIG. 18C) MPA (70-76 mg/kg, 50 μL injection) when co-formulated with DTG or CAB (n=6-12/timepoint per group), and (FIG. 18D) ENG (70-151 mg/kg, 50 μL injection) when co-formulated with DTG or CAB (n=6-12/timepoint per group). […] (FIG. 18E) R^2 values for mathematical models of zero-order, first-order, and diffusion-controlled (Higuchi) release.
Pharmacokinetic (PK) studies were carried out in mice over 90 days to assess in vivo drug release of MPT ISFI formulations. DTG, CAB, ENG, and MPA plasma concentrations were quantified using a high-performance liquid chromatography-tandem mass spectrometry LC/MS-MS method and were plotted over 90 days (FIG. 18).
Moreover, the release kinetics of DTG, CAB, MPA, and ENG were assessed against three mathematical models (zero-order, first-order, and diffusion-controlled (Higuchi) (Gouda, Baishya et al. 2017)).

[5] = published CAB population PK model, mean parameter; cited from earlier work
HIV = conditions: protein-adjusted, cited from earlier work; for 4×PA-IC90: benchmark for protection
[6] = Suspension stability studies; format: physicochemical; conditions: polymer:solvent 1:2
Method: Eight (8) formulations were prepared and evaluated for stability. The formulations were placed in a water bath at 37° C. with shaking overnight and then vortexed for about 2 min upon removal. Sample aliquots (about 1 mg, n=4) were collected from each formulation and analyzed by HPLC to determine drug homogeneity distribution within the formulation. All suspension formulations were reevaluated for homogeneity after at least 24 h storage at room temperature (RT) to determine stability of suspensions at RT.

[7] = In vitro release of chemotherapeutic ISFIs; format: physicochemical
Method: ISFI formulations were prepared with two different chemotherapeutic drugs, paclitaxel (PTX) and gemcitabine (Gem) and investigated for in vitro release kinetics (PTX and Gem ISFIs; FIGS. 21A-21C and 22A-22B) and for in vivo safety and pharmacokinetics (PTX ISFI; FIG. 23).

[8] = DMSO, organic solvent or mixture, solvent DMSO
[9] = 167 mg/g in 6:1 w/w PLA (10 kDa):Pluronic L61, NMP
[10] = 200 mg/g in 9:1 w/w PLA (10 kDa):Pluronic L61, NMP

Structure (SMILES): C[C@H]1CO[C@@H]2Cn3cc(C(=O)NCc4ccc(F)cc4F)c(=O)c(O)c3C(=O)N12 [CAB, Cabotegravir]
solubility ([2]; (NMP:DMSO 1:1 w/w):Tween 20 (9:1 w/w), organic solvent or mixture, solvent (NMP:DMSO 1:1 w/w):Tween 20 (9:1 w/w)): 107 ± 3.05 mg/mL
solubility [2, 8]: 38 mg/mL
solubility ([2]; NMP:DMSO (2:8 w/w), organic solvent or mixture, solvent NMP:DMSO (2:8 w/w)): 52.2 ± 6.39 mg/mL
solubility ([2]; NMP:DMSO (9:1 w/w), organic solvent or mixture, solvent NMP:DMSO (9:1 w/w)): 144 ± 1.99 mg/mL
solubility ([2]; NMP:Gelucire 44/14 (9:1 w/w), organic solvent or mixture, solvent NMP:Gelucire 44/14 (9:1 w/w)): 134 ± 3.81 mg/mL
solubility ([2]; NMP:HP-b-CD (6:4 w/w), organic solvent or mixture, solvent NMP:HP-b-CD (6:4 w/w)): 89.6 ± 5.49 mg/mL
solubility ([2]; NMP:HP-b-CD (9:1 w/w), organic solvent or mixture, solvent NMP:HP-b-CD (9:1 w/w)): 158.2 ± 1.12 mg/mL
solubility ([2]; NMP:b-CD (6:4 w/w), organic solvent or mixture, solvent NMP:b-CD (6:4 w/w)): 81.8 ± 2.35 mg/mL
solubility ([2]; PBS, aqueous buffer, solvent PBS): 0.014 ± 0.001 mg/mL
Saturation Solubility ([2]; solvent DMSO): 38.0 mg/mL
Saturation Solubility ([2]; solvent NMP): 131.7 ± 3.66 mg/mL
Saturation Solubility ([2]; solvent NMP:DMSO (1:1 w/w)): 167.12 ± 12.04 mg/mL
Saturation Solubility ([2]; solvent PBS + 2% Solutol): 0.06 ± 0.002 mg/mL
in vitro release as single-drug ISFI versus co-formulated [3]: comparable (p>0.05)
plasma concentrations when co-formulated with either hormone (MPA or ENG) ([4]; mouse, in vivo): no difference (p>0.05)
suspension formation when loaded above saturation concentration in PLGA/solvent placebo [1]: formed stable syringeable formulations
depot formation when injected into aqueous release medium [1]: formation of stable depots
CL [5]: 151 mL/h
Q [5]: 507 mL/h
V2 [5]: 5270 mL
V3 [5]: 2430 mL
4×PA-IC90 (HIV): 664 ng/mL
1×PA-IC90 (HIV): 166 ng/mL

Structure (SMILES): C[C@H]1CO[C@@H]2Cn3cc(C(=O)NCc4ccc(F)cc4F)c(=O)c(O)c3C(=O)N12 [CAB—Na salt, Cabotegravir sodium]
Saturation Solubility ([2]; solvent DMSO): 31.6 ± 0.96 mg/mL
Saturation Solubility ([2]; solvent NMP): 47.5 ± 1.72 mg/mL
Saturation Solubility ([2]; solvent NMP:DMSO (1:1 w/w)): 49.1 ± 1.2 mg/mL
Saturation Solubility ([2]; solvent PBS + 2% Solutol): 1.83 ± 0.7 mg/mL

Structure (SMILES): C[C@@H]1CCO[C@H]2Cn3cc(C(=O)NCc4ccc(F)cc4F)c(=O)c(O)c3C(=O)N12 [DTG, Dolutegravir]
solubility [2, 8]: 55 ± 4.5 mg/mL
solubility ([2]; NMP, organic solvent or mixture, solvent NMP): 269 ± 7.25 mg/mL
solubility ([2]; NMP:DMSO (1:1 w/w), organic solvent or mixture, solvent NMP:DMSO (1:1 w/w)): 229.3 ± 1.6 mg/mL
Saturation Solubility ([2]; solvent PBS + 2% Solutol): 0.56 ± 0.004 mg/mL
plasma concentrations when co-formulated with either hormone (MPA or ENG) ([4]; mouse, in vivo): no difference (p>0.05)
suspension formation when loaded above saturation concentration in PLGA/solvent placebo [1]: formed stable syringeable formulations
depot formation when injected into aqueous release medium [1]: formation of stable depots
4×PA-IC90 (HIV): 256 ng/mL
1×PA-IC90 (HIV): 64 ng/mL

Structure (SMILES): CC(=O)O[C@]1(C(C)=O)CC[C@H]2[C@@H]3C[C@H](C)C4=CC(=O)CC[C@]4(C)[C@H]3CC[C@@]21C [MPA, medroxyprogesterone acetate]
solubility ([2]; organic solvent or mixture, solvent NMP:DMSO (1:1 w/w)): 33.6 ± 0.9 mg/mL
in vitro release as single-drug ISFI versus co-formulated [3]: difference (p<0.05)
best-fit model of in vivo release ([4]; MPT ISFIs, 90-day PK): zero-order release model
plasma concentrations over the study ([4]; in MPT ISFIs, 90-day study): maintained during the 90-day study

Structure (SMILES): CC(=O)O[C@H]1C(=O)[C@@]2(C)[C@H]([C@H](OC(=O)c3ccccc3)[C@]3(O)C[C@H](OC(=O)[C@H](O)[C@@H](NC(=O)c4ccccc4)c4ccccc4)C(C)=C1C3(C)C)[C@]1(OC(C)=O)CO[C@@H]1C[C@@H]2O [PTX, paclitaxel]
in vitro release from ISFI [7]: exhibited sustained release in vitro
burst release in 24 h ([7]; ISFI): < 2%
sustained release duration ([7]; ISFI): > 60 days

Now from value to compound:

suspension formation when loaded above saturation concentration in PLGA/solvent placebo [1]: did not form successful suspensions
Structure (SMILES): Nc1ccn([C@@H]2CS[C@H](CO)O2)c(=O)n1 [3TC, lamuvidine]

24 h-Burst [6, 9]: 64%
Depot Forming [6, 9]: YES
24 h-Burst [6, 10]: 58%
Depot Forming [6, 10]: YES
suspension formation when loaded above saturation concentration in PLGA/solvent placebo [1]: did not form successful suspensions
depot formation when injected into aqueous release medium [1]: did not form a stable spherical depot
Structure (SMILES): C#C[C@]1(CO)O[C@@H](n2cnc3c(N)nc(F)nc32)C[C@@H]1O [EFdA, Islatravir]

in vitro release as single-drug ISFI versus co-formulated [3]: no difference (p>0.05)
in vitro release as single-drug ISFI versus co-formulated with CAB ([3]; beyond 60 days): significantly different (p<0.05)
plasma concentrations over the study ([4]; mouse, in vivo): maintained during the 90-day study
Structure (SMILES): C#C[C@]1(O)CC[C@H]2[C@@H]3CCC4=CC(=O)CC[C@@H]4[C@H]3C(=C)C[C@@]21CC [ENG, entonogestrel]

in vitro release from ISFI [7]: exhibited sustained release in vitro
Structure (SMILES): Nc1ccn([C@@H]2O[C@H](CO)[C@@H](O)C2(F)F)c(=O)n1 [Gem, gemcitabine]
